How the values were obtained:
Assay type in all cases: biochemical
EPHB4 = molecular target: T1, EPHB4 (Homo sapiens, UniProt P54760); test: mobility shift assay
T1 construct: purchased Carna Biosciences

KIT(V560G) = molecular target: T2, KIT(V560G) (Homo sapiens, UniProt P10721, V560G); test: mobility shift assay
T2 construct: purchased Carna Biosciences

JAK2 = molecular target: T3, JAK2 (Homo sapiens, UniProt O60674); test: mobility shift assay
T3 construct: purchased Carna Biosciences

AKT1 = molecular target: T4, AKT1 (Homo sapiens, UniProt P31749); test: mobility shift assay
T4 construct: purchased Carna Biosciences

FM8 = molecular target: T5, FM8 (Homo sapiens, UniProt P07333); test: mobility shift assay
T5 construct: purchased Carna Biosciences

CDK4/CycD3 = CDK4/CycD3 (Homo sapiens, UniProt P11802); test: mobility shift assay
ABL = molecular target: T6, ABL (Homo sapiens, UniProt P00519); test: mobility shift assay
T6 construct: purchased Carna Biosciences

NEK7 = molecular target: T7, NEK7 (Homo sapiens, UniProt Q8TDX7); test: mobility shift assay
T7 construct: purchased Carna Biosciences

PKCβ2 = molecular target: T8, PKCβ2 (Homo sapiens, UniProt P05771); test: mobility shift assay
T8 construct: purchased Carna Biosciences

MET(M125DT) = molecular target: T9, MET(M125DT) (Homo sapiens, UniProt P08581, M1250T); test: mobility shift assay
T9 construct: purchased Carna Biosciences

PAK6 = molecular target: T10, PAK6 (Homo sapiens, UniProt Q9NQU5); test: mobility shift assay
T10 construct: purchased Carna Biosciences

EPHA6 = molecular target: T11, EPHA6 (Homo sapiens, UniProt Q9UF33); test: mobility shift assay
T11 construct: purchased Carna Biosciences

MAPXK2 Cascade = test: mobility shift assay; details: 10 μM
PKCα = molecular target: T12, PKCα (Homo sapiens, UniProt P17252); test: mobility shift assay
T12 construct: purchased Carna Biosciences

MST 1 = molecular target: T13, MST 1 (Homo sapiens, UniProt Q13043); test: mobility shift assay
T13 construct: purchased Carna Biosciences

ALK(L1152lnsT) = test: mobility shift assay; details: 10 μM
PYK2 = molecular target: T14, PYK2 (Homo sapiens, UniProt Q14289); test: mobility shift assay
T14 construct: purchased Carna Biosciences

PIM2 = PIM2 (Homo sapiens, UniProt Q9P1W9); test: mobility shift assay
p70S6K = molecular target: T15, p70S6K (Homo sapiens, UniProt P23443); test: mobility shift assay
T15 construct: purchased Carna Biosciences

PKR = molecular target: T16, PKR (Homo sapiens, UniProt P19525); test: IMAP Assay
T16 construct: purchased Carna Biosciences

EPHB3 = molecular target: T17, EPHB3 (Homo sapiens, UniProt P54753); test: mobility shift assay
T17 construct: purchased Carna Biosciences

ABL(T315I) = molecular target: T18, ABL(T315I) (Homo sapiens, UniProt P00519, T315I); test: mobility shift assay
T18 construct: purchased Carna Biosciences

MST 4 = molecular target: T19, MST 4 (Homo sapiens, UniProt Q9P289); test: mobility shift assay
T19 construct: purchased Carna Biosciences

TNK = molecular target: T20, TNK (Homo sapiens, UniProt Q9UKE5); test: mobility shift assay
T20 construct: purchased Carna Biosciences

TSSK3 = molecular target: T21, TSSK3 (Homo sapiens, UniProt Q96PN8); test: mobility shift assay
T21 construct: purchased Carna Biosciences

JAK1 = molecular target: T22, JAK1 (Homo sapiens, UniProt P23458); test: mobility shift assay
T22 construct: purchased Carna Biosciences

MAP2K5 Cascade = molecular target: T23, MAP2K5 Cascade (Homo sapiens, UniProt Q13163); test: mobility shift assay
T23 construct: purchased Carna Biosciences

NEK6 = molecular target: T24, NEK6 (Homo sapiens, UniProt Q9HC98); test: mobility shift assay
T24 construct: purchased Carna Biosciences

MAP2K6_Cascade = molecular target: T25, MAP2K6_Cascade (Homo sapiens, UniProt P52564); test: mobility shift assay
T25 construct: purchased Carna Biosciences

MLK1_Cascade = molecular target: T26, MLK1_Cascade (Homo sapiens, UniProt P80192); test: mobility shift assay
T26 construct: purchased Carna Biosciences

FGFR2 = molecular target: T27, FGFR2 (Homo sapiens, UniProt P21802); test: mobility shift assay
T27 construct: purchased Carna Biosciences

MAP2K1 Cascade = molecular target: T28, MAP2K1 Cascade (Homo sapiens, UniProt Q02750); test: mobility shift assay
T28 construct: purchased Carna Biosciences

FGFR4 = molecular target: T29, FGFR4 (Homo sapiens, UniProt P22455); test: mobility shift assay
T29 construct: purchased Carna Biosciences

PBK = molecular target: T30, PBK (Homo sapiens, UniProt Q96KB5); test: mobility shift assay
T30 construct: purchased Carna Biosciences

PDGFRα(T674I) = molecular target: T31, PDGFRα(T674I) (Homo sapiens, UniProt P16234, T674I); test: mobility shift assay
T31 construct: purchased Carna Biosciences

HER4 = molecular target: T32, HER4 (Homo sapiens, UniProt Q15303); test: mobility shift assay
T32 construct: purchased Carna Biosciences

MSK2 = molecular target: T33, MSK2 (Homo sapiens, UniProt O75676); test: mobility shift assay
T33 construct: purchased Carna Biosciences

EEF2K = molecular target: T34, EEF2K (Homo sapiens, UniProt O00418); test: mobility shift assay
T34 construct: purchased Carna Biosciences

PKACβ = molecular target: T35, PKACβ (Homo sapiens, UniProt P22694); test: mobility shift assay
T35 construct: purchased Carna Biosciences

FER = molecular target: T36, FER (Homo sapiens, UniProt P16591); test: mobility shift assay
T36 construct: purchased Carna Biosciences

PDGFRβ = molecular target: T37, PDGFRβ (Homo sapiens, UniProt P09619); test: mobility shift assay
T37 construct: purchased Carna Biosciences

NDR1 = molecular target: T38, NDR1 (Homo sapiens, UniProt Q15208); test: mobility shift assay
T38 construct: purchased Carna Biosciences

PIM2, sequence (Q9P1W9 whole entry): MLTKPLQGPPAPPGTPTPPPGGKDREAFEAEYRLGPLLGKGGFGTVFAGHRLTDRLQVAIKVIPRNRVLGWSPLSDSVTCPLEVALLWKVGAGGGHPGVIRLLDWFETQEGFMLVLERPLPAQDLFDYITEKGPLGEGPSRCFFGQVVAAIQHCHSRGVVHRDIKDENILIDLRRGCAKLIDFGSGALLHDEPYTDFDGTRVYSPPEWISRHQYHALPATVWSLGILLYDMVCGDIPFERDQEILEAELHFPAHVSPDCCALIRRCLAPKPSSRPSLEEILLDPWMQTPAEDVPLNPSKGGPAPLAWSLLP
CDK4/CycD3, sequence (P11802 whole entry): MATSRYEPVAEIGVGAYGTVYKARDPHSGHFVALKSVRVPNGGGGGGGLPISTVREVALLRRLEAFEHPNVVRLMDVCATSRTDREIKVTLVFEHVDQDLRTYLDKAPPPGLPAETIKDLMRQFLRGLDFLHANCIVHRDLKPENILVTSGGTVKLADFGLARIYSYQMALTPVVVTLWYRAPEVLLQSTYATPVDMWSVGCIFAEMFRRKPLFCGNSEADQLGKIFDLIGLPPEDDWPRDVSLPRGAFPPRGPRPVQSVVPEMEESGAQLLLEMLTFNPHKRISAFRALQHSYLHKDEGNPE
CDK4/CycD3, sequence (P30281 whole entry partner): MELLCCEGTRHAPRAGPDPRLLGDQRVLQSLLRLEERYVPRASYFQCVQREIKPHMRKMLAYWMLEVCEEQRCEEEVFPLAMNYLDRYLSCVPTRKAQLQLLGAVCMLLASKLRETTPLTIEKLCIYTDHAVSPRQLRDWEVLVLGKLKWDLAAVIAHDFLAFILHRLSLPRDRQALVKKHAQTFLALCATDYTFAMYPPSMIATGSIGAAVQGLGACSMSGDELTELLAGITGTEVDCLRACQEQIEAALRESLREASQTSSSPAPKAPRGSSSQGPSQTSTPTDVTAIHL
T23 sequence (Q13163 whole entry): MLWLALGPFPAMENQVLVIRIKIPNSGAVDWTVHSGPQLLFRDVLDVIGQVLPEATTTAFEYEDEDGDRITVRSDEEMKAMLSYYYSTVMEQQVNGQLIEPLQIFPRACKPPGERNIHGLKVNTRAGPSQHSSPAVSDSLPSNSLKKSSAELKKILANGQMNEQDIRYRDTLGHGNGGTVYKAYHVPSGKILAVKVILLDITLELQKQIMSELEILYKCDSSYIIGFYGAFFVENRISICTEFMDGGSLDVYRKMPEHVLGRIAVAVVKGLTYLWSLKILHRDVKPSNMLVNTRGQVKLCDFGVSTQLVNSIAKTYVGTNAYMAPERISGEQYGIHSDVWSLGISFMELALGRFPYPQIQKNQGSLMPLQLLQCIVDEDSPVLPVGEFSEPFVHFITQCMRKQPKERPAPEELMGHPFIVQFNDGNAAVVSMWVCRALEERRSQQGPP
T32 sequence (Q15303 26-1308): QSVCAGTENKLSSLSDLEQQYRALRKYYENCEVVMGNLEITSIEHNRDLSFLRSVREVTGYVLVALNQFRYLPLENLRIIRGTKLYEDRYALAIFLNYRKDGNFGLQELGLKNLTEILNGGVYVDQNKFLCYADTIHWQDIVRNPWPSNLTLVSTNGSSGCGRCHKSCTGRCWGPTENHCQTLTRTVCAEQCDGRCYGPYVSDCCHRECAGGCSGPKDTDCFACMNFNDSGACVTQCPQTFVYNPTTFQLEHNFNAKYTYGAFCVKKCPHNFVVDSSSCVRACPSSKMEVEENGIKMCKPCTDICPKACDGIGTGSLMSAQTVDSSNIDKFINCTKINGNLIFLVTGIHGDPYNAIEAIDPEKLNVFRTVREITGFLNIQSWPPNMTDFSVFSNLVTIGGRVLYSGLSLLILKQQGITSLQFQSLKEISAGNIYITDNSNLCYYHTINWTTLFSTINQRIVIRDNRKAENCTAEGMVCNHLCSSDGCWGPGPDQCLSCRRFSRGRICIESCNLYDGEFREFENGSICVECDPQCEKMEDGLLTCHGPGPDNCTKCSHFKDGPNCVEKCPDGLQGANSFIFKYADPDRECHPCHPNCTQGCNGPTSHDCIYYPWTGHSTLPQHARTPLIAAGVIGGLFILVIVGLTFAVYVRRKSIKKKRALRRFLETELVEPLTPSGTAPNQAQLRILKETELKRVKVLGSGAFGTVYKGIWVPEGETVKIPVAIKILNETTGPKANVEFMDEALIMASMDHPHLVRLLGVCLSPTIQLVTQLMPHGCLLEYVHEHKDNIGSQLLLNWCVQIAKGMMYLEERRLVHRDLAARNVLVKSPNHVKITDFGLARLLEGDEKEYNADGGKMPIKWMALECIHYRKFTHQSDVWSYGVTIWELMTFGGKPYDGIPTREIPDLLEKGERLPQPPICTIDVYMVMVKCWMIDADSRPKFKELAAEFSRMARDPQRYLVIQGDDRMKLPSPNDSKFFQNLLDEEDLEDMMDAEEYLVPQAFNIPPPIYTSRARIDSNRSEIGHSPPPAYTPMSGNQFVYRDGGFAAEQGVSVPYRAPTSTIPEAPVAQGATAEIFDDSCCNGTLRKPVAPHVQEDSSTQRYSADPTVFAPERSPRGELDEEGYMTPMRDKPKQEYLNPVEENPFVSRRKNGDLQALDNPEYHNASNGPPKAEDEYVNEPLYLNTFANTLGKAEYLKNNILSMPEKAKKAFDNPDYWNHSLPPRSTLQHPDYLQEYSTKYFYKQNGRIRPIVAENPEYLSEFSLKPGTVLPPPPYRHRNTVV
T9 sequence (P08581 956-1390 M1250T limits assumed): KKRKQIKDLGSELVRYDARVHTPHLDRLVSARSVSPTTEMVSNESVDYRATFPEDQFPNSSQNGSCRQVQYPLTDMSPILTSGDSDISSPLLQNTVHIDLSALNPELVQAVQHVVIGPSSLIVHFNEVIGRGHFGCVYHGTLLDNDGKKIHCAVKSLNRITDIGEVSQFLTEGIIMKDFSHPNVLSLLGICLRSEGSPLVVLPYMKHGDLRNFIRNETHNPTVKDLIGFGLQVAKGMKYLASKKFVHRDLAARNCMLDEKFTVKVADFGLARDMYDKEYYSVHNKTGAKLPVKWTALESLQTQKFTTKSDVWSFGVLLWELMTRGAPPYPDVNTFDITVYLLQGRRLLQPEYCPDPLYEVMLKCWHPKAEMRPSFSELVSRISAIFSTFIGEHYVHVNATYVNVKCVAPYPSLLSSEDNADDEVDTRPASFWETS
T21 sequence (Q96PN8 whole entry): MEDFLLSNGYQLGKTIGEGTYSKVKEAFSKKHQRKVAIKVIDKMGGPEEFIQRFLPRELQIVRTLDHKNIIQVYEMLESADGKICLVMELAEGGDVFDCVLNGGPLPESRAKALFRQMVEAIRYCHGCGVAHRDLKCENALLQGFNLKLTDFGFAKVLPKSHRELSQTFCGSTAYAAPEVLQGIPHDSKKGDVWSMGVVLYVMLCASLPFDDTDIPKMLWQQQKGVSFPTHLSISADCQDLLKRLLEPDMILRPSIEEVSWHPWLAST
T27 sequence (P21802 22-821): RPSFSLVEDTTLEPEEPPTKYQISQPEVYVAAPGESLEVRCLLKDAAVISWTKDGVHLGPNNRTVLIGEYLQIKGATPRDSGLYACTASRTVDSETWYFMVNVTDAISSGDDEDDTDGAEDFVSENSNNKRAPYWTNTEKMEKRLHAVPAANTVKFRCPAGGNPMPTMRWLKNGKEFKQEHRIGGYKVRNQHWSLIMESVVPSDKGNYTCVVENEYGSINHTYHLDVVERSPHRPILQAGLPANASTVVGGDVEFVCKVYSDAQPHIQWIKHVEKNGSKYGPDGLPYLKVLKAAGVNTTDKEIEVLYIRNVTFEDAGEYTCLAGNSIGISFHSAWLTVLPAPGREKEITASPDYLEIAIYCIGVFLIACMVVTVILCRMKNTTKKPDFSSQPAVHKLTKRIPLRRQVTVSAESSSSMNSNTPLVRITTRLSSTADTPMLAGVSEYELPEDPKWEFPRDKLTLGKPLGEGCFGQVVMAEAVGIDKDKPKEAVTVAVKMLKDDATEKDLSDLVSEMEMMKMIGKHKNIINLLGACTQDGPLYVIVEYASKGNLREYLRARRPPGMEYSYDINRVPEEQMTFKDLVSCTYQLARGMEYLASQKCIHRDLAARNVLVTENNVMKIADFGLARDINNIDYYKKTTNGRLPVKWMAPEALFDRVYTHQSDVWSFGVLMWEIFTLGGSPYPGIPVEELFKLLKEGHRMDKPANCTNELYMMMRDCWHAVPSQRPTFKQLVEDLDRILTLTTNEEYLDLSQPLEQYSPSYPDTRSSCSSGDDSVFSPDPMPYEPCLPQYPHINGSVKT
T7 sequence (Q8TDX7 whole entry): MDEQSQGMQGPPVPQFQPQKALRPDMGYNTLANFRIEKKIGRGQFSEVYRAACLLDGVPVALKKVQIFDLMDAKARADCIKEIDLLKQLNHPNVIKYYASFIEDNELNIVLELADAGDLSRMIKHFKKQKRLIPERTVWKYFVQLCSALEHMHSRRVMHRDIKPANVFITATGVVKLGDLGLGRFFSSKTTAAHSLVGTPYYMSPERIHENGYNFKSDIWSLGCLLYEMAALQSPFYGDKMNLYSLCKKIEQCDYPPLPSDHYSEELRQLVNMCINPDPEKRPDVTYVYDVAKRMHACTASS
T30 sequence (Q96KB5 whole entry): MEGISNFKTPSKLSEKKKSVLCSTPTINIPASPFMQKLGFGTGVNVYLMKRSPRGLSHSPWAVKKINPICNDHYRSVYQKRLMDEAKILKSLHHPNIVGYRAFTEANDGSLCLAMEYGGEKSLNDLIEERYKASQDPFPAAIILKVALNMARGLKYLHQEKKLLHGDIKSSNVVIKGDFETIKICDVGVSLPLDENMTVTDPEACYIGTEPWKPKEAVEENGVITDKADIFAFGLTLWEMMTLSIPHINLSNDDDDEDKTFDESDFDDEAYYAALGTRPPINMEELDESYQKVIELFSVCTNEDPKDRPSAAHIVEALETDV

Compound: C[C@@H]1CC[C@H]2C(C)(C)CCC[C@]2(C)c2c1oc1c(C=O)c(O)c(O)cc21 [LG-1, liphagal]
- inhibition at 10 µM (EPHB4): -1.2%
- inhibition at 10 µM (KIT(V560G)): 17.9%
- inhibition at 10 µM (JAK2): -0.7%
- inhibition at 10 µM (AKT1): 3.1%
- inhibition at 10 µM (FM8): 12.5%
- inhibition at 10 µM (CDK4/CycD3; CDK4/CycD3): 63.4%
- inhibitory activity against CDK4 (CDK4/CycD3; in words, 10 μM): Potent inhibitory activity
- inhibition at 10 µM (ABL): 0.4%
- inhibition at 10 µM (NEK7): 24.4%
- inhibition at 10 µM (PKCβ2): -13.2%
- inhibition at 10 µM (MET(M125DT)): -0.2%
- inhibition at 10 µM (PAK6): -99.3%
- inhibition at 10 µM (EPHA6): 23%
- % Inhibition (MAPXK2 Cascade): 2.7%
- inhibition at 10 µM (PKCα): -8%
- inhibition at 10 µM (MST 1): 24.3%
- % Inhibition (ALK(L1152lnsT)): −0.2%
- inhibition at 10 µM (PYK2): 21.6%
- inhibition at 10 µM (PIM2; PIM2): 63.5%
- inhibitory activity against PIM2 (PIM2; in words, 10 μM): potent inhibitory activity
- inhibition at 10 µM (p70S6K): 15.9%
- inhibition at 10 µM (PKR): 13.8%
- inhibition at 10 µM (EPHB3): 1.7%
- inhibition at 10 µM (ABL(T315I)): 6.1%
- inhibition at 10 µM (MST 4): 80.3%
- inhibition at 10 µM (TNK): 0.1%
- inhibition at 10 µM (TSSK3): 85.6%
- inhibition at 10 µM (JAK1): 14.9%
- inhibition at 10 µM (MAP2K5 Cascade): -1.3%
- inhibition at 10 µM (NEK6): 65.4%
- inhibition at 10 µM (MAP2K6_Cascade): 19.9%
- inhibition at 10 µM (MLK1_Cascade): 16.3%
- inhibition at 10 µM (FGFR2): -8.4%
- inhibition at 10 µM (MAP2K1 Cascade): 4.1%
- inhibition at 10 µM (FGFR4): 7.5%
- inhibition at 10 µM (PBK): 13%
- inhibition at 10 µM (PDGFRα(T674I)): 29.2%
- inhibition at 10 µM (HER4): 17.9%
- inhibition at 10 µM (MSK2): -11.7%
- inhibition at 10 µM (EEF2K): 22.4%
- inhibition at 10 µM (PKACβ): 13.9%
- inhibition at 10 µM (FER): 42.8%
- inhibition at 10 µM (PDGFRβ): -3.4%
- inhibition at 10 µM (NDR1): 2.6%
